Assay results: patent US12226374B2, “Compositions comprising quinone and/or quinol and methods of preparations and use thereof” (American River Nutrition, LLC, priority 2019, dated 2025)

Key:
Assay type in all cases: physicochemical
[1] = CoQone solubilized in GG as binary mixture: dissolution and degradation; details: CoQone about 25% / GG about 75%
Procedure: (§1) The weight ratios of CoQone to CoQnol in the mixture were determined by HPLC using a modified method disclosed by Mattila (Mattila et al., 2000), which is incorporated by reference in its entirety. Samples were extracted from the mixing vessel under inert gas flush and the mixing vessel was then flushed with inert gas prior to resealing. Samples were dissolved in chloroform and then analyzed on a Waters Symmetry C18 column (5 μm, 4.6×250 mm) at about 35° C. The mobile phase (1.8 mL/min) was methanol:ethanol:2-propanol (53:25:22) with UV detection at 275 nm for CoQone and 290 nm for CoQnol. The retention times were about 5.7 min for CoQnol and about 8.8 min for CoQone, respectively. The HPLC method described herein was utilized in subsequent examples.
GG was added to an appropriately sized mixing vessel and heated to about 52° C. (±3°) while stirring. CoQone was added to the mixing vessel with GG to form a mixture. The mixture was stirred at about 52° C. (±3°) until CoQone was completely melted and solubilized in GG to attain a translucent solution. The mixing vessel was then flushed with a neutral, non-oxygenated gas until atmospheric air was displaced and the mixing vessel was sealed airtight. This mixture was then mixed for several days.

[2] = Stability of CoQ10 at elevated temperatures in CoQ:AP:GG mixture (HPLC)
Procedure: as §1
GG was added to an appropriately sized mixing vessel and heated to about 52° C. (±3°) while stirring. CoQone was added to the mixing vessel with GG to form a mixture. The mixture was stirred at about 52° C. (±3°) until CoQone was completely melted and solubilized in GG to attain a translucent solution. Then AP was added to the translucent solution, which was stirred until no visible dry AP was left on the surface. […] This mixture was then mixed at elevated temperature for 10 days with periodic flushing of neutral, non-oxygenated gas where the CoQnol conversion rate and the total amount of CoQ (both CoQnol and CoQone) were monitored.

[3] = CoQone mixed directly with AP (binary mixture) at elevated temperature: total CoQ degradation; details: about 75° C., about 3 days
Procedure: as §1
CoQone was added to an appropriately sized mixing vessel and melted at about 52° C. (±3°) while stirring. AP was added to the mixing vessel with CoQone to form a mixture. The mixture was gently stirred at about 52° C. (±3°) until no apparent dry AP was visible. The mixing vessel was then flushed with a neutral, non-oxygenated gas until atmospheric air was displaced and the mixing vessel was sealed airtight. This mixture was then mixed at elevated temperature for several days with periodic flushing of inert gas with the CoQone to CoQnol conversion rate being monitored.

[4] = Manufacture production batch (20 kg) and softgels: total CoQ loss and stability; details: 20 kg CoQone:AP:GG batch, argon, about 52° C., about six days
Procedure: A manufacture batch was run according the preparation methods set forth in Example 1 with the following modifications. The total amount of CoQone:AP:GG mixtures was 20 kg. Argon was used to flush the mixing vessel until the atmospheric air was displaced. After the mixing vessel was sealed air-tight, this mixture of CoQone:AP:GG was then stirred at about 52° C. (±2°) for about six days with periodic flushing of Argon for about every 24 hours.
The final composition in the sealed vessel was placed in a hopper for the encapsulation process in a softgel assembly line. The finished softgels were analyzed to determine that the weight percentage of CoQnol in total amount of CoQnol and CoQone is about 93%. […] Softgels are hermetically sealed and the contents within the softgels are expected to be stable for at least about 2 years.

[5] = Headspace comparison of inert gases (nitrogen vs argon): total CoQ10 loss; details: CoQ10:AP:GG about 4:2:4, about 52° C., about 6-7 days
Procedure: as §1
CoQ10, AP, and GG are provided in the weight ratio of about 4:2:4. The three components were placed in a mixing vessel kept stirred at about 52° C. (±3°). The mixing vessel was flushed with a neutral, non-oxygenated gas until atmospheric air was displaced entirely by Nitrogen […] or Argon (Ar) and sealed airtight. This mixture was then stirred at elevated temperatures for about 6-7 days until the target CoQnol conversion rate was reached.

- dissolution of CoQ10 in GG ([1]; about 52° C.): completely dissolved
- degradation of CoQ ([1]; after about 3 weeks, inert gas): nor was there any degradation
- loss of total CoQ10 ([2]; about 3-5 days at about 50-55° C., initial ratio CoQ:AP:GG 1:1:1): less than 5%
- loss of total CoQ (both CoQone and CoQnol) ([2]; about 8-10 days at about 50-55° C., fixed initial ratio CoQ:AP:GG about 1:1:1, inert gas with periodic flushing): about 15%
- total CoQ10 degraded [3]: about 21%
- loss of the total CoQ [4]: without any measurable loss
- total loss of CoQ10 ([5]; argon-filled headspace): less than 0.5%
- total CoQ10 loss ([5]; nitrogen-filled headspace): about 7%
SMILES: COC1=C(OC)C(=O)C(C/C=C(\C)CC/C=C(\C)CC/C=C(\C)CC/C=C(\C)CC/C=C(\C)CC/C=C(\C)CC/C=C(\C)CC/C=C(\C)CC/C=C(\C)CCC=C(C)C)=C(C)C1=O [CoQ10]
